Settings: Liquid, Vibrating tube method

CCCCCCCCCC [decane]
Settings | mass density [kg/m3]
283.55 K, 5000 kPa | 742
283.56 K, 3000 kPa | 740
283.56 K, 20000 kPa | 752
283.56 K, 30000 kPa | 758
283.56 K, 40000 kPa | 763
283.56 K, 50000 kPa | 769
283.56 K, 60000 kPa | 774
283.56 K, 70000 kPa | 779
283.56 K, 80000 kPa | 783
283.56 K, 90000 kPa | 788
283.57 K, 1000 kPa | 739
283.57 K, 10000 kPa | 745
283.58 K, 100 kPa | 738
293.48 K, 100 kPa | 731
293.48 K, 1000 kPa | 731
293.49 K, 5000 kPa | 734
293.49 K, 10000 kPa | 738
293.49 K, 20000 kPa | 745
293.5 K, 30000 kPa | 751
293.5 K, 40000 kPa | 757
293.5 K, 50000 kPa | 763
293.5 K, 100000 kPa | 787
293.51 K, 60000 kPa | 768
293.51 K, 70000 kPa | 773
293.51 K, 80000 kPa | 778
293.51 K, 90000 kPa | 783
303.42 K, 100 kPa | 723
303.42 K, 1000 kPa | 724
303.42 K, 10000 kPa | 731
303.42 K, 30000 kPa | 745
303.42 K, 40000 kPa | 751
303.42 K, 70000 kPa | 768
303.42 K, 80010 kPa | 773
303.42 K, 90000 kPa | 777
303.43 K, 5000 kPa | 727
303.43 K, 20000 kPa | 738
303.43 K, 50000 kPa | 757
303.43 K, 60000 kPa | 762
303.43 K, 100000 kPa | 782
313.35 K, 100 kPa | 716
313.35 K, 1000 kPa | 717
313.35 K, 5000 kPa | 721
313.35 K, 40000 kPa | 746
313.36 K, 20000 kPa | 732
313.36 K, 50000 kPa | 752
313.36 K, 70000 kPa | 763
313.36 K, 80000 kPa | 768
313.36 K, 90000 kPa | 773
313.36 K, 100000 kPa | 777
313.37 K, 10000 kPa | 725
313.37 K, 30000 kPa | 739
313.37 K, 60000 kPa | 757
323.24 K, 100 kPa | 708
323.24 K, 1000 kPa | 709
323.24 K, 100000 kPa | 771
323.25 K, 5000 kPa | 712
323.25 K, 10000 kPa | 717
323.25 K, 20000 kPa | 725
323.25 K, 30000 kPa | 732
323.25 K, 40000 kPa | 739
323.25 K, 50000 kPa | 745
323.25 K, 60000 kPa | 751
323.25 K, 70000 kPa | 757
323.25 K, 80000 kPa | 762
323.25 K, 90000 kPa | 767
333.12 K, 5000 kPa | 705
333.12 K, 10000 kPa | 710
333.12 K, 20000 kPa | 718
333.13 K, 100 kPa | 700
333.13 K, 1000 kPa | 701
333.13 K, 30000 kPa | 726
333.13 K, 80000 kPa | 757
333.13 K, 90000 kPa | 762
333.13 K, 100000 kPa | 767
333.14 K, 40000 kPa | 733
333.14 K, 50000 kPa | 740
333.14 K, 60000 kPa | 746
333.14 K, 70000 kPa | 751
343.01 K, 100 kPa | 693
343.01 K, 1000 kPa | 694
343.01 K, 10000 kPa | 703
343.01 K, 20000 kPa | 712
343.01 K, 30000 kPa | 720
343.01 K, 40000 kPa | 727
343.01 K, 50000 kPa | 734
343.01 K, 60000 kPa | 740
343.02 K, 5000 kPa | 698
343.02 K, 70000 kPa | 746
343.02 K, 80000 kPa | 752
343.02 K, 90000 kPa | 757
343.02 K, 100000 kPa | 762
352.87 K, 100 kPa | 686
352.87 K, 1000 kPa | 687
352.87 K, 5000 kPa | 691
352.88 K, 10000 kPa | 696
352.88 K, 20000 kPa | 706
352.88 K, 30000 kPa | 714
352.88 K, 40000 kPa | 722
352.88 K, 50000 kPa | 729
352.88 K, 60000 kPa | 735
352.89 K, 70000 kPa | 741
352.89 K, 80000 kPa | 747
352.89 K, 90000 kPa | 753
352.89 K, 100000 kPa | 758
362.69 K, 100 kPa | 677
362.69 K, 1000 kPa | 678
362.7 K, 5000 kPa | 683
362.7 K, 10000 kPa | 689
362.71 K, 20000 kPa | 699
362.71 K, 30000 kPa | 708
362.71 K, 40000 kPa | 716
362.71 K, 50000 kPa | 723
362.71 K, 60000 kPa | 730
362.72 K, 70000 kPa | 736
362.72 K, 80000 kPa | 742
362.72 K, 90000 kPa | 747
362.72 K, 100000 kPa | 753
